Experimental findings from US5770688A, “Method and composition for the treatment of mammalian HIV infection” (GSF-Forschungszentrum fur Umwelt und Gesundheit GmbH, priority 1989, dated 1998) are described below.

Assay [1] concerns HIV. Kind of assay: HIV release from chronically infected cells (Biomek 1000). Format: cell-based. Conditions: for overall effect, in words: FIGS. 20-29; for inhibition of viral cell (HIV) release from infected cells, in words: FIGS. 6-19. From the text: (§1) A series of experiments and which are illustrated graphically in FIGS. 6 through 34, respectively, were designed to detect two extremes. In particular the tests were designed to detect the inhibition of viral release and/or the release of virus which has a reduced ability to infect other cells. This reduced ability to infect other cells is represented, for example, by glycosylation inhibitors, the direct effect on virus release is represented by acylation inhibitors, RT inhibitors and melittin (Seq. ID NO:1). The most important feature of this experimental design, however, is to detect the toxicity of melittin. The present experiments were carried out on both the astrocytoma cell line LC5-HIV (cloned infected cells) and T-lymphocytoma cell line KE37-1/IIIβ (cloned infected cells with HTLV-IIIβ). In both cases the results were essentially identical.
(§2) In the present series of experiments HIV release was tested by a fully automated laboratory robot system and which is manufactured by Beckman Instruments as the Biomek 1000. This system performed the following steps. First, chronically infected cells (cloned) are plated in microtiter plates and grown for a period of seven days. They are then challenged by melittin (Seq. ID NO:1) during this period either for the final day or throughout the period as shown in the figures. The number of living cells are quantified by MTT, that is by a metabolic (dehydrogenase) test. The MTT test is automatically performed. The toxic effect is detected at the time of the experiment and not in a separate control experiment. Furthermore, the supernatant, and which contains released virus cells from the period of time which elapsed from the last wash, and which may vary from 24 hours to 7 days, is collected from the culture, and an aliquot is saved for virus quantification by employing antigen or viral enzyme reverse transcriptase (RT). Furthermore, an aliquot is added to a culture of uninfected cells in microtiter plates for subsequent measurement of the ability of the virus cells to reinfect these uninfected cells. In this regard, the number of infected cells is automatically quantified by an immunoperoxidase staining technique. The test results, as shown, are expressed in terms of toxicity of the melittin (MTT test); the release of HIV from the primary culture (RT test); and the ability of the released virus to infect previously uninfected cells.

In assay [2] the test system is HIV-infected LC5 cells. Kind of assay: MTT toxicity/killing of HIV infected cells (Biomek 1000). Format: cell-based, human. The procedure:
The KE37-1 (uninfected) and KE37-1/111β (infected) cell lines discussed below are commercially available from the Dr. Robert Gallows Laboratory of the NIH in the United States of America and grown in a medium of RPMI 1640 (GIBCO) and further supplemented with 10% fetal calf serum which contained approximately 100 units of penicillin, 100 μg streptomycin, and approximately 0.25 μg fungizone (Amphotericin B) per milliliter. The human mesenchymal cell lines LC5 and LC5-HIV, discussed below, are deposited with the Collection De L'Institut Pasteur of Paris, France on Mar. 9, 1989 and given the accession numbers I-842 and I-843, respectively. The LC5 and LC5-HIV cell lines were grown in a medium of RPMI 1640 and supplemented with 10% fetal calf serum.
as §1, §2

For assay [3], the system named is Rausher leukemia virus. Particulars: 2 weeks.
Protocol: The size of the spleen is taken as a measure of the progress of the disease which eventually leads to the death of the infected animals.
The test of the antiviral effect of the melittin (Seq. ID NO:1) principle was carried out on Balb C mice (12 weeks old; all males). The animals were kept in numbers of 4 per cage. The animals were infected by Rausher leukemia virus (10^5 infectious particles (viruses) per animal in a volume of 0.2 ml) by intraperitoneal injection (ip) followed by subcutaneous injection of the test substance after 10 minutes. The animals were divided into two groups referred to as controls (receiving a sham injection of saline) or test animals (receiving the melittin analogue).
The peptide was dissolved as 100 μg/ml and the controls as well as the test animals were injected with the same volume subcutaneously (0.1 ml) of PBS or PBS+test substance respectively. The injection was carried out 10 minutes after injection of the infectious virus. After 2 days the animals received a new injection of melittin analogue (10 μg/mg body weight) or PBS as a subcutaneous injection of 0.100 ml. After 4 days from the first injection a third injection was performed using 20 μg/mg body weight of melittin analogue.

In the case of “MHC: MHC (Seq. ID NO:10), (MAJOR histocompatibility complex sequence) (VAAKANRVADEIRHKREKLE) [reference compound]”, the “overall effect, in words” value in assay [1] was “do not have any readily apparent effects”.

Turning to “control peptide: HOLST peptide (negative control); no apparent structural similarity to melittin (FAESGVDTPVFNSY) [reference compound]”, the “overall effect, in words” value in assay [1] is “without effect”.

Take “melittin 1-20: melittin 1-20 (Seq. ID NO:7) lacks the cell binding part of the molecule”: the “inhibition of viral cell (HIV) release from infected cells, in words” value in assay [1] was “inhibited HIV release as did the natural melittin and melittin (1-20)-6-(Gly)-Amide”. Moreover, in assay [2], the “inhibition of growth / survival of infected cells, in words” value is listed as “inhibited the growth of infected cells”.

For “Gly-Ile-Gly-Ala-Val-Leu-Lys-Val-Leu-Thr-Thr-Gly-Leu-Pro-Ala-Leu-Ile-Ser-Trp-Ile-Gly-Gly-Gly-Gly-Gly-Gly [melittin (1-20)-6-(Gly)-Amide]”, in assay [3], the “animals with spleens greater than 150 mg but lower than 170 mg (borderline)” value is given as 25%, the “infected animals that do not develop disease” value amounted to 75%, the “number of animals with pathological spleen” value is “one” and the “spleen weight of the rest of the test group” value is 100 to 150 mg. The “inhibition of viral cell (HIV) release from infected cells, in words” value in assay [1] is given as “inhibited HIV release”. Further, in assay [2], the “inhibition of growth / survival of infected cells, in words” value is “inhibited the growth of infected cells”.

As for mastoparan [reference compound], the “overall effect, in words” value in assay [1] is “do not have any readily apparent effects”.

As for “Melittin COOH: Melittin COOH was tested and appeared to be less efficient than the melittin amid”, the “efficiency compared with melittin amid” value in assay [1] is reported as “less efficient than the melittin amid”.
